Tested on: pooled human liver microsomal preparations (HLM)
Assay: Compound 1 metabolism / metabolite formation in reconstituted system with pooled HLM
Assay type: in vitro ADME
Conditions: estimated by UV absorbance at 270 nm, metabolite formed or Compound 1 left after 1 hour with NADPH
Method: The metabolism of Compound 1 was determined by the disappearance of Compound 1 or the appearance of Compound 1 metabolites in reaction mixtures as compared to respective controls. Compound 1 was incubated in the reconstituted in vitro reaction systems containing pooled human liver S9 fractions, microsomal preparations, or recombinant hepatic CYP forms, including CYP1A2, CYP2C9, CYP2C19, CYP2D6, CYP2E1, and CYP3A4. The reaction mixture (total volume of 250 μL) contained 0.5 mg of liver microsomal protein, 50 or 25 pmol of recombinant CYP, and Compound 1 (50-80 μM) in 50 mM Tris buffer containing 15 mM MgCl2 (pH 7.4). After incubating at 37° C. with gentle shaking for 1 minute, the reaction was initiated by adding 25 μL of NADPH solution (20 mg/mL), and was carried out for 1 hour. The reaction was terminated by quickly cooling the test tube on ice, followed by the addition of an equal volume of 100% methanol. The samples were centrifuged in a desktop centrifuge at 14,000 rpm for 5 minutes, and the supernatants were filtered through syringe filters (13 mm, 0.45 μm). The filtrates were subjected to analysis using LC/MS (ion trap) or LC/MS/MS.
1. […] The detector was monitored at 270 nm, which is the UVmax of Compound 1 predetermined by scanning between 225-400 nm using a photodiode array detector (PDA). […]

CNC(=O)Cc1ccc2ccn(C3CCN(CCc4ccccc4F)CC3)c2c1 [Compound 1, N-methyl-[1-[1-(2-fluorophenethyl)piperidine-4-yl]-1H-indol-6-yl] acetamide]
Rel. Amount (%): 36%

Reference: patent US20050033056A1, “Hydroxylated indole derivatives and uses thereof” (priority 2001, published 2005)
